Legend:
Format in all cases: in vivo
[1] = tested on: barnyardgrass (Echinochloa crus-galli); experiment: Test C flooded paddy test plant response; settings: Flood, 250 g ai/ha; scale of 0 to 100 where 0 is no effect and 100 is complete control; 13 to 15 days
In short: (§1)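 2-leaf plants; flood 3 cm, cpd into paddy water; greenhouse 13–15 d; visual score vs untreated, 0 = no effect, 100 = complete control; dash = no result.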

[2] = tested on: rice (Oryza sativa); experiment: Test C flooded paddy test plant response; settings: Flood, 250 g ai/ha; scale of 0 to 100 where 0 is no effect and 100 is complete control; 13 to 15 days
In short: as §1

[3] = tested on: ducksalad (Heteranthera limosa); experiment: Test C flooded paddy test plant response; settings: Flood, 250 g ai/ha; scale of 0 to 100 where 0 is no effect and 100 is complete control; 13 to 15 days
In short: as §1

[4] = tested on: small-flower umbrella sedge (Cyperus difformis); experiment: Test C flooded paddy test plant response; settings: Flood, 250 g ai/ha; scale of 0 to 100 where 0 is no effect and 100 is complete control; 13 to 15 days
In short: as §1

[5] = tested on: galium (catchweed bedstraw, Galium aparine); experiment: Test B postemergence plant response
In short: (§2)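 Injury was assessed visually about 10 days after treatment, scored from 0 (no effect) to 100 (complete control) by comparison with untreated controls. Test chemicals had been applied postemergence to potted plants at the one- to two-leaf stage, grown in loam soil and sand in a greenhouse.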

[6] = tested on: blackgrass (Alopecurus myosuroides); experiment: Test B postemergence plant response
In short: as §2

[7] = tested on: pigweed (Amaranthus retroflexus); experiment: Test B pre-/postemergence plant response
In short: (§3)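 Greenhouse pots, loam/sand soil; compound formulated with surfactant in non-phytotoxic solvent. Preemergence soil spray and postemergence spray at 1–2 leaf stage run simultaneously. Visual injury, 0–100, about 10 days post-treatment.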

[8] = tested on: giant foxtail (Setaria faberii); experiment: Test B pre-/postemergence plant response
In short: as §3

[9] = tested on: barnyardgrass (Echinochloa crus-galli); experiment: Test B pre-/postemergence plant response
In short: as §3

[10] = tested on: wheat (Triticum aestivum); experiment: Test B pre-/postemergence plant response
In short: as §3

[11] = tested on: Italian ryegrass (Lolium multiflorum); experiment: Test B pre-/postemergence plant response
In short: as §3

[12] = tested on: ragweed (common ragweed, Ambrosia elatior); experiment: Test B pre-/postemergence plant response
In short: as §3

[13] = tested on: corn (Zea mays); experiment: Test B pre-/postemergence plant response
In short: as §3

[14] = tested on: kochia (Kochia scoparia); experiment: Test B pre-/postemergence plant response
In short: as §3

[15] = 125 g ai/ha, postemergence, 0 to 100 scale, 0 no effect, 100 complete control
[16] = Postemergence, 500 g ai/ha, 0 to 100 scale (0 no effect, 100 complete control)
[17] = Preemergence, 125 g ai/ha, 0 to 100 scale (0 no effect, 100 complete control)
[18] = Preemergence, 500 g ai/ha, 0 to 100 scale where 0 is no effect and 100 is complete control
[19] = Postemergence, 31 g ai/ha, 0 to 100 scale (0 no effect, 100 complete control)
[20] = 31 g ai/ha, Preemergence, 0 to 100 scale where 0 is no effect and 100 is complete control

FC(F)(F)c1csc(-c2ccccc2Oc2ncc(Br)cn2)n1 [Compound 139]
Barnyardgrass plant response rating [1]: 0 | Rice plant response rating [2]: 20 | Ducksalad plant response rating [3]: 30 | Sedge, Umbrella plant response rating [4]: 0 | Plant response rating, Galium [5, 15]: 0 | Plant response rating, Galium [5, 16]: 0 | Plant response rating, Blackgrass [6, 15]: 0 | Plant response rating, Blackgrass [6, 16]: 0 | Plant response rating, Pigweed [7, 15]: 0 | Plant response rating, Pigweed [7, 16]: 0 | Pigweed plant response rating [7, 17]: 0 | Plant response rating, Pigweed [7, 18]: 0 | Plant response rating, Foxtail, Giant [8, 15]: 0 | Plant response rating, Foxtail, Giant [8, 16]: 0 | Foxtail, Giant plant response rating [8, 17]: 0 | Plant response rating, Foxtail, Giant [8, 18]: 0 | Plant response rating, Barnyardgrass [9, 15]: 0 | Plant response rating, Barnyardgrass [9, 16]: 0 | Barnyardgrass plant response rating [9, 17]: 0 | Plant response rating, Barnyardgrass [9, 18]: 0 | Plant response rating, Wheat [10, 15]: 0 | Plant response rating, Wheat [10, 16]: 0 | Plant response rating, Ryegrass, Italian [11, 15]: 0 | Plant response rating, Ryegrass, Italian [11, 16]: 0 | Ryegrass, Italian plant response rating [11, 17]: 0 | Plant response rating, Ryegrass, Italian [11, 18]: 0 | Plant response rating, Ragweed [12, 15]: 0 | Plant response rating, Ragweed [12, 16]: 0 | Ragweed plant response rating [12, 17]: 0 | Plant response rating, Ragweed [12, 18]: 0 | Plant response rating, Corn [13, 15]: 0 | Plant response rating, Corn [13, 16]: 0 | Plant response rating, Kochia [14, 15]: 0 | Plant response rating, Kochia [14, 16]: 0 | Kochia plant response rating [14, 17]: 0 | Plant response rating, Kochia [14, 18]: 0

COc1cnc(Oc2ccccc2-c2cc(C(F)F)no2)nc1 [Compound 213]
Barnyardgrass plant response rating [1]: 0 | Rice plant response rating [2]: 0 | Ducksalad plant response rating [3]: 75 | Sedge, Umbrella plant response rating [4]: 0 | Plant response rating, Galium [5, 15]: 80 | Plant response rating, Galium [5, 19]: 50 | Plant response rating, Blackgrass [6, 15]: 10 | Plant response rating, Blackgrass [6, 19]: 0 | Plant response rating, Pigweed [7, 20]: 80 | Plant response rating, Pigweed [7, 15]: 80 | Plant response rating, Pigweed [7, 19]: 30 | Pigweed plant response rating [7, 17]: 100 | Plant response rating, Foxtail, Giant [8, 20]: 0 | Plant response rating, Foxtail, Giant [8, 15]: 20 | Plant response rating, Foxtail, Giant [8, 19]: 0 | Foxtail, Giant plant response rating [8, 17]: 80 | Plant response rating, Barnyardgrass [9, 20]: 0 | Plant response rating, Barnyardgrass [9, 15]: 0 | Plant response rating, Barnyardgrass [9, 19]: 0 | Barnyardgrass plant response rating [9, 17]: 40 | Plant response rating, Wheat [10, 15]: 10 | Plant response rating, Wheat [10, 19]: 0 | Plant response rating, Ryegrass, Italian [11, 20]: 0 | Plant response rating, Ryegrass, Italian [11, 15]: 0 | Plant response rating, Ryegrass, Italian [11, 19]: 0 | Ryegrass, Italian plant response rating [11, 17]: 0 | Plant response rating, Ragweed [12, 20]: 0 | Plant response rating, Ragweed [12, 15]: 60 | Plant response rating, Ragweed [12, 19]: 10 | Ragweed plant response rating [12, 17]: 0 | Plant response rating, Corn [13, 15]: 10 | Plant response rating, Corn [13, 19]: 0 | Plant response rating, Kochia [14, 20]: 10 | Plant response rating, Kochia [14, 15]: 100 | Plant response rating, Kochia [14, 19]: 60 | Kochia plant response rating [14, 17]: 50

Reference: patent publication US10131652B2, “Pyrimidinyloxy benzene derivatives as herbicides” (E. I. DU PONT DE NEMOURS AND COMPANY, priority 2014, dated 2018)
